From patent US20260217701A1, “SELECTIVE BET INHIBITORS AND USES THEREOF” (Tay Therapeutics Limited, priority 2022, published 2026)
Entries after “also recorded” stand apart in the source; their conditions may differ. Where two headings read alike, the source gives them in different places.

Columns and labels:
[1] = system: collagen-induced arthritis; assay: CIA model: histopathologic analysis of hind limbs; assay type: in vivo, Lewis rats; conditions: for Erosion/Ulcer, cartilaginous, Marked (number of animals) / Erosion/Ulcer, cartilaginous, Mild (number of animals) / Erosion/Ulcer, cartilaginous, Minimal (number of animals) / Erosion/Ulcer, cartilaginous, Moderate (number of animals) / Granulation tissue, Marked (number of animals) / Granulation tissue, Mild (number of animals) / Granulation tissue, Minimal (number of animals) / Granulation tissue, Moderate (number of animals) / Increased bone, periosteum, Marked (number of animals) / Increased bone, periosteum, Mild (number of animals) / Increased bone, periosteum, Minimal (number of animals) / Increased bone, periosteum, Moderate (number of animals) / Increased eroded surface, bone, Marked (number of animals) / Increased eroded surface, bone, Mild (number of animals) / Increased eroded surface, bone, Minimal (number of animals) / Increased eroded surface, bone, Moderate (number of animals) / Mixed cell inflammation, Marked (number of animals) / Mixed cell inflammation, Mild (number of animals) / Mixed cell inflammation, Minimal (number of animals) / Mixed cell inflammation, Moderate (number of animals) / No Visible Lesions (number of animals): hind limbs, CIA induced, 8 animals examined
From the text: Mean histopathologic scores for tissue samples from animals in Groups 1-6 are depicted in FIG. 22A, and day 21 histology scores for all animals are illustrated in FIG. 22B.

[2] = system: collagen-induced arthritis; conditions: for average overall clinical score at plateau: around day 18-19
Procedure: (§1) The emulsion was cooled in an ice water bath during the formulation. The final concentration of collagen was 1 mg/mL. The emulsion is prepared fresh immediately prior to injection.
as §1
Experimental groups for the study are outlined in Table 5A. […] Animals in group one received no immunization.
IHC markers for staining were selected after evaluating clinical and histopathological scores for animals. After the skin was removed, the right hind limb was snap frozen in liquid nitrogen and RNA and protein analysis was performed.
Blood samples were collected from animals in groups 1-7 via cardiac puncture following euthanasia on Day 21. […] Serum was divided into two separate tubes and stored at −75±15° C. One tube was used to analyze IgG1, and the other tube was reserved for additional analyses.
H&E-stained slides of designated tissues from animals were transferred to an independent pathologist for microscopic evaluation (SPFBio). Samples were assigned the histologic grades based on the severity of change from tissue where CIA was not induced. Histology grades assigned were as follows: grade 1 (minimal change), grade 2 (mild change), grade 3 (moderate change), grade 4 (marked change), and grade 5 (severe change). A grade may be assigned for each indicator of disease severity: inflammation, mixed cell; granulation tissue; increased bone, periosteum; increased eroded surface, bone and erosion/ulcer, cartilaginous. […] Moderate inflammation was also associated with increased edema fluid, fibrin, and cellular debris. Marked mixed cell inflammation was characterized by dense, widespread accumulations of neutrophils and macrophages with lesser number of lymphocytes within one or more joint spaces, synovium and periarticular soft tissues. Marked inflammation was also associated with abundant edema fluid, fibrin, and cellular debris.
Marked granulation tissue (pannus) was associated with inflammation and was characterized by widespread fibrovascular connective tissue that expanded/replaced the periarticular soft tissues of one or more joints, extended into/expanded joint spaces, was contiguous with areas of erosion/ulcer in articular cartilage and/or increased eroded surface of bone, and variably extended along the diaphysis.
Marked increased periosteal bone (periosteal bone formation) was characterized by extensive areas of increased bone matrix and numerous prominent osteoblasts lining trabecular surfaces along the metaphysis and/or diaphysis of one or more bones.

[3] = Group 5 (CIA + Compound A 1 mg/kg), 1 mg/kg
[4] = Group 6 (CIA + Compound A 3 mg/kg)
[5] = Group 7 (CIA + Compound A 10 mg/kg), two out of eight samples

Cn1cc(-c2ccccc2)c(-c2cn(C)c(=O)c3[nH]c(-c4cnn(C(F)(F)F)c4)cc23)cc1=O [Compound A, 6-methyl-4-(1-methyl-2-oxo-5-phenyl-1,2-dihydropyridin-4-yl)-2-(1-(trifluoromethyl)-1H-pyrazol-4-yl)-1,6-dihydro-7H-pyrrolo[2,3-c]pyridin-7-one]
Samples with no pathologic observations ([1]; 1 mg/kg, Group 5): One out of eight | Samples with no pathologic observations ([1]; 3 mg/kg, Group 6): Two out of eight | Samples with no pathologic observations ([1]; 10 mg/kg, Group 7): Six out of eight | Animals exhibiting normal limb/joint pathology ([1]; 10 mg/kg, day 21): 6/8 | Erosion/ulcer in articular cartilage, grade [1, 3]: mild and mild to moderate | Granulation tissue (pannus), grade [1, 3]: mild and mild to moderate | Increased eroded surface of bone (bone resorption), grade [1, 3]: mild and mild to moderate | Increased periosteal bone (periosteal bone formation), grade [1, 3]: mild and mild to moderate | Mixed cell inflammation, grade [1, 3]: moderate to marked | Erosion/ulcer in articular cartilage, grade [1, 4]: mild | Increased eroded surface of bone (bone resorption), grade [1, 4]: mild | Increased periosteal bone (periosteal bone formation), grade [1, 4]: mild | Mixed cell inflammation, grade [1, 4]: moderate | Granulation tissue (pannus), grade ([1]; Group 6 (CIA + Compound A 3 mg/kg), 3 mg/kg): mild and mild to moderate | Histopathological observations, representative sample/image ([1]; Group 7 (CIA + Compound A 10 mg/kg), FIG. 23G, 23I, 10 mg/kg): no histopathological observations noted; also recorded: normal joint pathology | Erosion in the articular cartilage, grade [1, 5]: mild | Granulation tissue (pannus), grade [1, 5]: mild | Increased periosteal bone (periosteal bone formation), grade [1, 5]: minimal | Mixed cell inflammation, grade [1, 5]: mild to moderate | Pathologic observations relative to CIA-induced group (Group 2) ([1]; Groups 5-7 (Compound A 1, 3, 10 mg/kg)): all decreased in severity, extent, and distribution | Severity of arthritic histopathology versus vehicle- and GSK620-treated animals ([1]; all tested doses (1, 3, 10 mg/kg)): dose-dependent reduction in the severity of arthritic histopathology; also recorded: significant dose-dependent decrease in the incidence and severity of collagen-induced arthritis | Erosion/Ulcer, cartilaginous, Marked (number of animals) ([1]; 1 mg/kg): 0 | Erosion/Ulcer, cartilaginous, Mild (number of animals) ([1]; 1 mg/kg): 6 | Erosion/Ulcer, cartilaginous, Minimal (number of animals) ([1]; 1 mg/kg): 0 | Erosion/Ulcer, cartilaginous, Moderate (number of animals) ([1]; 1 mg/kg): 1 | Granulation tissue, Marked (number of animals) ([1]; 1 mg/kg): 0 | Granulation tissue, Mild (number of animals) ([1]; 1 mg/kg): 3 | Granulation tissue, Minimal (number of animals) ([1]; 1 mg/kg): 0 | Granulation tissue, Moderate (number of animals) ([1]; 1 mg/kg): 3 | Increased bone, periosteum, Marked (number of animals) ([1]; 1 mg/kg): 0 | Increased bone, periosteum, Mild (number of animals) ([1]; 1 mg/kg): 4 | Increased bone, periosteum, Minimal (number of animals) ([1]; 1 mg/kg): 1 | Increased bone, periosteum, Moderate (number of animals) ([1]; 1 mg/kg): 0 | Increased eroded surface, bone, Marked (number of animals) ([1]; 1 mg/kg): 0 | Increased eroded surface, bone, Mild (number of animals) ([1]; 1 mg/kg): 3 | Increased eroded surface, bone, Minimal (number of animals) ([1]; 1 mg/kg): 0 | Increased eroded surface, bone, Moderate (number of animals) ([1]; 1 mg/kg): 2 | Mixed cell inflammation, Marked (number of animals) ([1]; 1 mg/kg): 0 | Mixed cell inflammation, Mild (number of animals) ([1]; 1 mg/kg): 2 | Mixed cell inflammation, Minimal (number of animals) ([1]; 1 mg/kg): 1 | Mixed cell inflammation, Moderate (number of animals) ([1]; 1 mg/kg): 4 | No Visible Lesions (number of animals) ([1]; 1 mg/kg): 1 | Erosion/Ulcer, cartilaginous, Marked (number of animals) ([1]; 3 mg/kg): 0 | Erosion/Ulcer, cartilaginous, Mild (number of animals) ([1]; 3 mg/kg): 3 | Erosion/Ulcer, cartilaginous, Minimal (number of animals) ([1]; 3 mg/kg): 3 | Erosion/Ulcer, cartilaginous, Moderate (number of animals) ([1]; 3 mg/kg): 0 | Granulation tissue, Marked (number of animals) ([1]; 3 mg/kg): 0 | Granulation tissue, Mild (number of animals) ([1]; 3 mg/kg): 4 | Granulation tissue, Minimal (number of animals) ([1]; 3 mg/kg): 0 | Granulation tissue, Moderate (number of animals) ([1]; 3 mg/kg): 2 | Increased bone, periosteum, Marked (number of animals) ([1]; 3 mg/kg): 0 | Increased bone, periosteum, Mild (number of animals) ([1]; 3 mg/kg): 4 | Increased bone, periosteum, Minimal (number of animals) ([1]; 3 mg/kg): 2 | Increased bone, periosteum, Moderate (number of animals) ([1]; 3 mg/kg): 0 | Increased eroded surface, bone, Marked (number of animals) ([1]; 3 mg/kg): 0 | Increased eroded surface, bone, Mild (number of animals) ([1]; 3 mg/kg): 3 | Increased eroded surface, bone, Minimal (number of animals) ([1]; 3 mg/kg): 2 | Increased eroded surface, bone, Moderate (number of animals) ([1]; 3 mg/kg): 0 | Mixed cell inflammation, Marked (number of animals) ([1]; 3 mg/kg): 0 | Mixed cell inflammation, Mild (number of animals) ([1]; 3 mg/kg): 2 | Mixed cell inflammation, Minimal (number of animals) ([1]; 3 mg/kg): 0 | Mixed cell inflammation, Moderate (number of animals) ([1]; 3 mg/kg): 4 | No Visible Lesions (number of animals) ([1]; 3 mg/kg): 2 | Erosion/Ulcer, cartilaginous, Marked (number of animals) ([1]; 10 mg/kg): 0 | Erosion/Ulcer, cartilaginous, Mild (number of animals) ([1]; 10 mg/kg): 1 | Erosion/Ulcer, cartilaginous, Minimal (number of animals) ([1]; 10 mg/kg): 1 | Erosion/Ulcer, cartilaginous, Moderate (number of animals) ([1]; 10 mg/kg): 0 | Granulation tissue, Marked (number of animals) ([1]; 10 mg/kg): 0 | Granulation tissue, Mild (number of animals) ([1]; 10 mg/kg): 1 | Granulation tissue, Minimal (number of animals) ([1]; 10 mg/kg): 0 | Granulation tissue, Moderate (number of animals) ([1]; 10 mg/kg): 0 | Increased bone, periosteum, Marked (number of animals) ([1]; 10 mg/kg): 0 | Increased bone, periosteum, Mild (number of animals) ([1]; 10 mg/kg): 0 | Increased bone, periosteum, Minimal (number of animals) ([1]; 10 mg/kg): 0 | Increased bone, periosteum, Moderate (number of animals) ([1]; 10 mg/kg): 0 | Increased eroded surface, bone, Marked (number of animals) ([1]; 10 mg/kg): 0 | Increased eroded surface, bone, Mild (number of animals) ([1]; 10 mg/kg): 0 | Increased eroded surface, bone, Minimal (number of animals) ([1]; 10 mg/kg): 1 | Increased eroded surface, bone, Moderate (number of animals) ([1]; 10 mg/kg): 0 | Mixed cell inflammation, Marked (number of animals) ([1]; 10 mg/kg): 0 | Mixed cell inflammation, Mild (number of animals) ([1]; 10 mg/kg): 1 | Mixed cell inflammation, Minimal (number of animals) ([1]; 10 mg/kg): 0 | Mixed cell inflammation, Moderate (number of animals) ([1]; 10 mg/kg): 1 | No Visible Lesions (number of animals) ([1]; 10 mg/kg): 6 | plateau increase in paw volume relative to day 0 ([2]; 1 mg/kg (group 5), around day 18): approximately 50% | animals exhibiting disease ([2]; 1 mg/kg (group 5), day 14): 5/8 | animals exhibiting disease ([2]; 1 mg/kg (group 5), day 18): 7/8 | percent inhibition in clinical score relative to GSK620 ([2]; 1 mg/kg and 3 mg/kg vs GSK620 10 mg/kg): nearly twice as high | percent inhibition of increase in paw volume relative to GSK620 ([2]; 1 mg/kg or 3 mg/kg vs GSK620 10 mg/kg): more than twice | plateau increase in paw volume relative to day 0 ([2]; 3 mg/kg): approximately 40% | animals exhibiting disease ([2]; 3 mg/kg (group 6), day 15): 4/8 | animals exhibiting disease ([2]; 3 mg/kg (group 6), day 18): all animals | animals exhibiting disease ([2]; 10 mg/kg (group 7), day 15): 4/8 | animals exhibiting disease ([2]; 10 mg/kg (group 7), day 18): 7/8 | decrease in paw volume relative to CIA+Vehicle ([2]; 10 mg/kg PO QD, Day 21): ~79% | reduction in clinical score compared to vehicle-treated animals ([2]; 10 mg/kg PO QD, Day 21): ~71% | rat anti-collagen IgG1 antibodies, lower than vehicle treated animals ([2]; 10 mg/kg, day 21, serum): > 98% | plateau increase in paw volume relative to day 0 ([2]; 10 mg/kg, Group 7): approximately 35% | rat anti-collagen IgG1 antibodies relative to untreated CIA animals ([2]; 1, 3 and 10 mg/kg, day 21, p<0.01): significantly decreased | average overall clinical score at plateau ([2]; group 5 (1 mg/kg)): 5 | average overall clinical score at plateau ([2]; group 6 (3 mg/kg)): 4 | average overall clinical score at plateau ([2]; group 7 (10 mg/kg)): 4
